In the supplement of paper PMC10307832 one finds relative viability data, which are given here for 4 cell lines.

Holding throughout (test): relative viability (nuclei count vs DMSO), 5 days (fraction); higher = more cells survive
Compound in the assay “Vemurafenib + Navitoclax”: CCCS(=O)(=O)Nc1ccc(F)c(C(=O)c2c[nH]c3ncc(-c4ccc(Cl)cc4)cc23)c1F [Vemurafenib] + CC1(C)CCC(c2ccc(Cl)cc2)=C(CN2CCN(c3ccc(C(=O)NS(=O)(=O)c4ccc(N[C@H](CCN5CCOCC5)CSc5ccccc5)c(S(=O)(=O)C(F)(F)F)c4)cc3)CC2)C1 [Navitoclax] (partner 0.5 µM)
The gist of the method:
(§1)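 Lung cancer cell lines were pin-tool dosed in 1536-well plates on the day after seeding, with either a lone drug or a fixed anchor-drug dose plus five library-drug doses (not always all listed) in √10 steps. Nuclei were counted on 4× images after 5 days. Relative viability is the ratio of treated-well to vehicle-well nuclei counts, with each value a median of duplicate plates.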

Compound in the assay “OSI-027 + Lapatinib”: COc1cccc2cc(-c3nc([C@H]4CC[C@H](C(=O)O)CC4)n4ncnc(N)c34)[nH]c12 [OSI-027] + CS(=O)(=O)CCNCc1ccc(-c2ccc3ncnc(Nc4ccc(OCc5cccc(F)c5)c(Cl)c4)c3c2)o1 [Lapatinib] (partner 2 µM)
A digest of the protocol: as §1

Compound in the assay “Alpelisib + Bortezomib”: Cc1nc(NC(=O)N2CCC[C@H]2C(N)=O)sc1-c1ccnc(C(C)(C)C(F)(F)F)c1 [Alpelisib] + CC(C)C[C@H](NC(=O)[C@H](Cc1ccccc1)NC(=O)c1cnccn1)B(O)O [Bortezomib] (partner 0.002 µM)
The gist of the method:
as §1

Compound in the assay “Alpelisib + Linsitinib”: Cc1nc(NC(=O)N2CCC[C@H]2C(N)=O)sc1-c1ccnc(C(C)(C)C(F)(F)F)c1 [Alpelisib] + C[C@]1(O)C[C@@H](c2nc(-c3ccc4ccc(-c5ccccc5)nc4c3)c3c(N)nccn32)C1 [Linsitinib] (partner 1 µM)
A digest of the protocol: as §1

For the cell line H3255, the relative viability with Vemurafenib + Navitoclax (first compound 0.03162 µM) was determined as 0.493; with Vemurafenib + Navitoclax (first compound 0.3162 µM) it was 0.57; with Vemurafenib + Navitoclax (first compound 1 µM) it was 0.386; with OSI-027 + Lapatinib (first compound 0.01 µM), 0.22; in the assay with OSI-027 + Lapatinib (first compound 0.03162 µM) it was 0.269; with OSI-027 + Lapatinib (first compound 0.1 µM), 0.234. For the same cell line, the relative viability in the assay with OSI-027 + Lapatinib (first compound 0.3162 µM) was 0.183; with OSI-027 + Lapatinib (first compound 1 µM), 0.234; in the assay with Alpelisib + Bortezomib (first compound 0.04 µM) it was 0.852; in the assay with Alpelisib + Bortezomib (first compound 0.1265 µM), 0.648; with Alpelisib + Bortezomib (first compound 0.4 µM), 1.2; with Alpelisib + Bortezomib (first compound 1.265 µM) it was 0.48. In addition, the relative viability in the assay with Alpelisib + Bortezomib (first compound 4 µM) was 0.444; in the assay with Alpelisib + Linsitinib (first compound 0.04 µM), 0.979; with Alpelisib + Linsitinib (first compound 0.1265 µM), 1.01; in the assay with Alpelisib + Linsitinib (first compound 0.4 µM), 1.07; with Alpelisib + Linsitinib (first compound 1.265 µM), 0.715; with Alpelisib + Linsitinib (first compound 4 µM) it was 0.794.

With NCI-H2087, the relative viability came to 0.936 with Vemurafenib + Navitoclax (first compound 0.03162 µM); 0.915 in the assay with Vemurafenib + Navitoclax (first compound 0.1 µM); 0.987 with Vemurafenib + Navitoclax (first compound 1 µM); 1.11 in the assay with OSI-027 + Lapatinib (first compound 0.01 µM); 1.06 with OSI-027 + Lapatinib (first compound 0.03162 µM); 0.873 with OSI-027 + Lapatinib (first compound 0.1 µM). Also, the relative viability in the assay with OSI-027 + Lapatinib (first compound 0.3162 µM) stood at 0.951; with OSI-027 + Lapatinib (first compound 1 µM), 0.769; with Alpelisib + Bortezomib (first compound 0.04 µM), 0.651; in the assay with Alpelisib + Bortezomib (first compound 0.1265 µM), 0.78; with Alpelisib + Bortezomib (first compound 0.4 µM) it was 0.893; with Alpelisib + Bortezomib (first compound 1.265 µM) it was 0.685. The relative viability turned out to be 0.47 with Alpelisib + Bortezomib (first compound 4 µM); 0.853 with Alpelisib + Linsitinib (first compound 0.04 µM); 0.979 in the assay with Alpelisib + Linsitinib (first compound 0.1265 µM); 1.05 in the assay with Alpelisib + Linsitinib (first compound 0.4 µM); 0.803 in the assay with Alpelisib + Linsitinib (first compound 1.265 µM); 1.07 in the assay with Alpelisib + Linsitinib (first compound 4 µM).

For RERF-LC-KJ, the relative viability with Vemurafenib + Navitoclax (first compound 0.03162 µM) is 1.05; with Vemurafenib + Navitoclax (first compound 0.1 µM), 1.04; with Vemurafenib + Navitoclax (first compound 0.3162 µM), 0.977; with Vemurafenib + Navitoclax (first compound 1 µM), 1.29; in the assay with OSI-027 + Lapatinib (first compound 0.01 µM), 0.778; with OSI-027 + Lapatinib (first compound 0.03162 µM), 0.843. For the same cell line, the relative viability in the assay with OSI-027 + Lapatinib (first compound 0.1 µM) amounted to 0.78; with OSI-027 + Lapatinib (first compound 0.3162 µM), 0.589; in the assay with OSI-027 + Lapatinib (first compound 1 µM), 0.376; in the assay with Alpelisib + Bortezomib (first compound 0.04 µM) it was 1.1; with Alpelisib + Bortezomib (first compound 0.1265 µM), 1.08; with Alpelisib + Bortezomib (first compound 0.4 µM) it was 1.32. The relative viability with Alpelisib + Bortezomib (first compound 1.265 µM) was 1.01; in the assay with Alpelisib + Bortezomib (first compound 4 µM) it was 0.934; with Alpelisib + Linsitinib (first compound 0.04 µM) it was 0.816; with Alpelisib + Linsitinib (first compound 0.1265 µM), 0.878; with Alpelisib + Linsitinib (first compound 0.4 µM), 0.823; in the assay with Alpelisib + Linsitinib (first compound 1.265 µM), 0.734. The relative viability with Alpelisib + Linsitinib (first compound 4 µM) worked out at 0.749.

As for NCI-H2228, the relative viability came to 0.687 in the assay with Vemurafenib + Navitoclax (first compound 0.03162 µM); 0.752 with Vemurafenib + Navitoclax (first compound 0.1 µM); 1.04 in the assay with Vemurafenib + Navitoclax (first compound 0.3162 µM); 0.841 with Vemurafenib + Navitoclax (first compound 1 µM); 1.05 with OSI-027 + Lapatinib (first compound 0.01 µM); 1.21 with OSI-027 + Lapatinib (first compound 0.03162 µM). In addition, the relative viability came to 0.958 in the assay with OSI-027 + Lapatinib (first compound 0.1 µM); 0.539 with OSI-027 + Lapatinib (first compound 1 µM); 0.933 with Alpelisib + Bortezomib (first compound 0.04 µM); 0.807 in the assay with Alpelisib + Bortezomib (first compound 0.1265 µM); 0.922 with Alpelisib + Bortezomib (first compound 0.4 µM); 0.696 with Alpelisib + Bortezomib (first compound 1.265 µM). The relative viability in the assay with Alpelisib + Bortezomib (first compound 4 µM) turned out to be 0.537; with Alpelisib + Linsitinib (first compound 0.04 µM) it was 0.762; in the assay with Alpelisib + Linsitinib (first compound 0.1265 µM) it was 0.496; with Alpelisib + Linsitinib (first compound 0.4 µM), 0.564; in the assay with Alpelisib + Linsitinib (first compound 1.265 µM), 0.517; in the assay with Alpelisib + Linsitinib (first compound 4 µM), 0.287.
